Experimental data taken from paper PMC7252619 (PLoS ONE, 2020).
Several values for one entry are separate records, joined by “and”; a condition that tells them apart may be missing. Equal values may be shown once. Read-outs that look alike come from different tables or passages of the source.

Tests used:
Test in all cases: Kinase activity test (ReactionBiology), % enzyme activity relative to DMSO
Format in all cases: biochemical
[1] = target: T1, CK1d (Homo sapiens, UniProt P48730); conditions: for % Enzyme Activity (relative to DMSO controls), Data 1: replicate Data 1
T1 construct: purchased ReactionBiology

[2] = target: T2, EPHB4 (Homo sapiens, UniProt P54760);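 note: EPHB4 was one of ten selected kinases in the screening panel, with enzyme activity expressed as a percentage of DMSO controls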
T2 construct: purchased ReactionBiology
T2 sequence (P54760 16-987): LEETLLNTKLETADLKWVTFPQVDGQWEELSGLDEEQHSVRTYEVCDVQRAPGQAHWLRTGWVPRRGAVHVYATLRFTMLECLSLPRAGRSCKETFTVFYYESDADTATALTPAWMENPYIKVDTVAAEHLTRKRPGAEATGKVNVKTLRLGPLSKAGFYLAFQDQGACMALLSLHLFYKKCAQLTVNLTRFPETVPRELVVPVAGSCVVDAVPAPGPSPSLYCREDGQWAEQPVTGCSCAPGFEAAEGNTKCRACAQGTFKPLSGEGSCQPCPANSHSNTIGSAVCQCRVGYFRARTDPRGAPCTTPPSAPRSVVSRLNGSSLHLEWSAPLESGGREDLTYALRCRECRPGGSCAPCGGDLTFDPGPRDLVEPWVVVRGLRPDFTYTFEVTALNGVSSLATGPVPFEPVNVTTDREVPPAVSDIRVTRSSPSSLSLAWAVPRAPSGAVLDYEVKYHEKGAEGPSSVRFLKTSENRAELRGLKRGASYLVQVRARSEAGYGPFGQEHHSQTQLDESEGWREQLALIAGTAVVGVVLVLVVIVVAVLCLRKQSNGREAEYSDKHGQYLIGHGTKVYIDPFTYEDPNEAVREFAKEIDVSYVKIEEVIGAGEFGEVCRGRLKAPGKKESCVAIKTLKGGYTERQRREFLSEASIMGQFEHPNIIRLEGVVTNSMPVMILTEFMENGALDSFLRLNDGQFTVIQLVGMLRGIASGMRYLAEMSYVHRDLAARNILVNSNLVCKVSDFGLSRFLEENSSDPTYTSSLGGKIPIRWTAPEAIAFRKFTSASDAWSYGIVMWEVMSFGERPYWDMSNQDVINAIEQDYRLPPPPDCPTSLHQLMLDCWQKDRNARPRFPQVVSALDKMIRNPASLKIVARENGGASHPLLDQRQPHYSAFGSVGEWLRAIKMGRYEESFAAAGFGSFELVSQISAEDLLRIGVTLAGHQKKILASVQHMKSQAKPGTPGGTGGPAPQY

[3] = target: VEGFR2 (Homo sapiens, UniProt P35968); set-up: purchased ReactionBiology; conditions: for % Enzyme Activity (relative to DMSO controls), Data 1: replicate Data 1;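 for all read-outs here: VEGFR2 was one member of a ten-kinase screening panel testing marketed FDA-approved drugs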
[4] = target: T3, DAPK1 (Homo sapiens, UniProt P53355)
T3 construct: purchased ReactionBiology

[5] = VEGFR2, 10 uM, replicate Data 2

T1 sequence (P48730 whole entry): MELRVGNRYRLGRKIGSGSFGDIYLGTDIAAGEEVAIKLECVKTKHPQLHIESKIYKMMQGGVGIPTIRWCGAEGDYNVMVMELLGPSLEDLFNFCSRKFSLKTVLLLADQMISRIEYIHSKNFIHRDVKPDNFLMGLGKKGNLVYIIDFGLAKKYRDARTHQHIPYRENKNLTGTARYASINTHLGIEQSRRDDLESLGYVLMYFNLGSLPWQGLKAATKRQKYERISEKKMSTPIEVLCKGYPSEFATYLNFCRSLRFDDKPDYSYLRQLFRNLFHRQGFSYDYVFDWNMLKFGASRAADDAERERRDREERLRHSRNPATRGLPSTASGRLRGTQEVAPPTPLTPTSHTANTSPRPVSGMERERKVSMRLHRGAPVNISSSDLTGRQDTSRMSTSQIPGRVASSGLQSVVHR
T3 sequence (P53355 whole entry): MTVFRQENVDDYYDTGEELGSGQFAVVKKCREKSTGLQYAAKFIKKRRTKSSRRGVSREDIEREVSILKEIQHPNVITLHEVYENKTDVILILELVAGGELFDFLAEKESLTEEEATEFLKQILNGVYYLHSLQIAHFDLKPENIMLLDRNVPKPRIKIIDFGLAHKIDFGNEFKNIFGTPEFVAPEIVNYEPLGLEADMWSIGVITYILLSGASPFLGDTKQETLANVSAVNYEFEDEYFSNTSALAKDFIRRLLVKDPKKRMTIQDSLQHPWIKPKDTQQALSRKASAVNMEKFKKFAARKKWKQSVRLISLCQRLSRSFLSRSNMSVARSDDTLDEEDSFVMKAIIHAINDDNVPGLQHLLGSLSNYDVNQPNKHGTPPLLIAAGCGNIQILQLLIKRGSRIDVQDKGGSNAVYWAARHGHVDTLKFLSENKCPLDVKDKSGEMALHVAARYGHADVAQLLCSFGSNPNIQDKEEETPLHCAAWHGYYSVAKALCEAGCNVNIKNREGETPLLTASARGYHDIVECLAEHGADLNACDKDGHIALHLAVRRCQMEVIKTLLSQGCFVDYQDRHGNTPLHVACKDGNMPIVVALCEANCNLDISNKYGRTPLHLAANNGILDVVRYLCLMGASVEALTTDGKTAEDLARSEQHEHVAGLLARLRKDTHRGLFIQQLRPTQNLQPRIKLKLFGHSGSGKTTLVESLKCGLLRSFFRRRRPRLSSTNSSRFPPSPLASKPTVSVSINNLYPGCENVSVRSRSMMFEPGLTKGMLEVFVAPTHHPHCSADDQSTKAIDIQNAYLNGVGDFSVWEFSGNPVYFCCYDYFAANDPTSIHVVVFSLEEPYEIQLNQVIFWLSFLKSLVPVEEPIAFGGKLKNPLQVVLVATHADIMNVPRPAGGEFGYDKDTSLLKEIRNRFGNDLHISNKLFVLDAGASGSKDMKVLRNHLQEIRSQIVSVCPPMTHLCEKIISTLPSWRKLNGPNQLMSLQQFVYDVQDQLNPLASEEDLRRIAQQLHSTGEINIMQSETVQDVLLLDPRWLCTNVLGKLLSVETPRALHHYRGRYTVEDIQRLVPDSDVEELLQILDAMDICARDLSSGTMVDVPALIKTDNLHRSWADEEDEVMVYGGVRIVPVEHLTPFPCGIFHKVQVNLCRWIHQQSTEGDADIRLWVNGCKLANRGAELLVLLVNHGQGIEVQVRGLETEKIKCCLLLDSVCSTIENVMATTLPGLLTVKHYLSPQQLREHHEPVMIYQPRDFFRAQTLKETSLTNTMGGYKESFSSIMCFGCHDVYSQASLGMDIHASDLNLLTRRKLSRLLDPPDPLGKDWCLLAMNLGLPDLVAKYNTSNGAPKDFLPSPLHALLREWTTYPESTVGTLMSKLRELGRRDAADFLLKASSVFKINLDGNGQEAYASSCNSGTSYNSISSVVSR
Chain of VEGFR2 (P35968 20-1356): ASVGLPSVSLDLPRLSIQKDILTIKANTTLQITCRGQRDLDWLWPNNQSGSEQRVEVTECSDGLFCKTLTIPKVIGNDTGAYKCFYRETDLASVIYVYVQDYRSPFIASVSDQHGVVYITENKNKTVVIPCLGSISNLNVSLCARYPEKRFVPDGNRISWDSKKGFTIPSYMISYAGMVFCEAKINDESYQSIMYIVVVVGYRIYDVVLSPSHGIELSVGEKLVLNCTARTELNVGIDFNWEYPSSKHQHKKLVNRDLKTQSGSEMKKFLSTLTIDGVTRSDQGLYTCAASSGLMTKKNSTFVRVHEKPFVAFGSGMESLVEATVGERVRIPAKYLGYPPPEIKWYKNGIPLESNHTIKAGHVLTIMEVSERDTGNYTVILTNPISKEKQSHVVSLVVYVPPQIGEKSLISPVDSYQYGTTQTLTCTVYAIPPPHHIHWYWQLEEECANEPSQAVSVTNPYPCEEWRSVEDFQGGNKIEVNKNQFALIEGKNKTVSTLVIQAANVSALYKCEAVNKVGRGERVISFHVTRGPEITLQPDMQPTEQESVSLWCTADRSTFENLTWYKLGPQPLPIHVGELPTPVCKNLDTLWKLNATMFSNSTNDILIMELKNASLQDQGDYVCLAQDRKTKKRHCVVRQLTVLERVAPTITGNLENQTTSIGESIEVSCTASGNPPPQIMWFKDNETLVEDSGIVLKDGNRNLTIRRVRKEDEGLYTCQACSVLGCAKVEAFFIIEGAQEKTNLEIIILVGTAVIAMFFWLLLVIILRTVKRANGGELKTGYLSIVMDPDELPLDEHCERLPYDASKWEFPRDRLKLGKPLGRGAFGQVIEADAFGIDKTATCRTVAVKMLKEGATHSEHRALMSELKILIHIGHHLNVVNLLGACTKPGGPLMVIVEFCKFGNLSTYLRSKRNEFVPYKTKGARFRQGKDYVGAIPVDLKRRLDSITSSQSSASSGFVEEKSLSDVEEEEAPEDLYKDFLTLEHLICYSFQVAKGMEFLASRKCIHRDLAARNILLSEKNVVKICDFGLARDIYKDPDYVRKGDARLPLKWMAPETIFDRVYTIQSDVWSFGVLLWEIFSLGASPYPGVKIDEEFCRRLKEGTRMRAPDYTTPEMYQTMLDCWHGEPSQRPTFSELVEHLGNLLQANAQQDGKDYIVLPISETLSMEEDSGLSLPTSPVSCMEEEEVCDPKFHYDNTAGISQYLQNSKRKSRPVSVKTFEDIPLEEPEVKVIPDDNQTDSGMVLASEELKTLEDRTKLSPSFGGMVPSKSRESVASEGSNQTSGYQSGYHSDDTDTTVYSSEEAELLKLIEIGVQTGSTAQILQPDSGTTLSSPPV

Row | Molecule | % Enzyme Activity (relative to DMSO controls), Average ([2]; EPHB4, 1 uM, Average) [%] | % Enzyme Activity (relative to DMSO controls), Average ([2]; EPHB4, 10 uM, Average) [%] | % Enzyme Activity (relative to DMSO controls), Average ([3]; VEGFR2, 1 uM) [%] | % Enzyme Activity (relative to DMSO controls), Average ([3]; VEGFR2, 10 uM) [%] | % Enzyme Activity (relative to DMSO controls), Data 1 ([2]; EPHB4, 1 uM, replicate Data 1) [%] | % Enzyme Activity (relative to DMSO controls), Data 2 ([2]; EPHB4, 1 uM, replicate Data 2) [%] | % Enzyme Activity (relative to DMSO controls), Data 1 ([2]; EPHB4, 10 uM, replicate Data 1) [%] | % Enzyme Activity (relative to DMSO controls), Data 2 ([2]; EPHB4, 10 uM, replicate Data 2) [%] | also measured
1 | CN1CCC[C@H]1c1cccnc1 [Nicotine] | – | – | – | – | – | – | – | – | % Enzyme Activity (relative to DMSO controls), Average [4]: 100.32% and 100.82%; % Enzyme Activity (relative to DMSO controls), Data 1 [4]: 100.9% and 106.33%; % Enzyme Activity (relative to DMSO controls), Data 2 [4]: 99.74% and 95.31%; % Enzyme Activity (relative to DMSO controls), Average [2]: 98.32% and 87.80%; % Enzyme Activity (relative to DMSO controls), Data 1 [2]: 99.28% and 89.89%; % Enzyme Activity (relative to DMSO controls), Data 2 [2]: 97.35% and 85.7%
2 | Nc1c2c(nc3ccccc13)CCCC2 [Tacrine] | – | – | – | – | – | – | – | – | % Enzyme Activity (relative to DMSO controls), Data 2 [1]: 118.35%; % Enzyme Activity (relative to DMSO controls), Data 2 [2]: 73.14% and 73.39%; % Enzyme Activity (relative to DMSO controls), Data 2 [3]: 94.26% and 99.54%
3 | Cc1ccc(-c2cc(C(F)(F)F)nn2-c2ccc(S(N)(=O)=O)cc2)cc1 [Celecoxib] | 103.20 | 99.23 | 113.33 | 110.02 | – | – | – | – | % Enzyme Activity (relative to DMSO controls), Average ([1]; CK1d, 1 uM): 94.68%
4 | CS(=O)(=O)c1ccc(C2=C(c3ccccc3)C(=O)OC2)cc1 [Rofecoxib] | 93.84 | 82.31 | – | – | 92.91 | 94.77 | 77.99 | 86.63 | % Enzyme Activity (relative to DMSO controls), Average ([4]; DAPK1, 1 uM, Average): 107.94%; % Enzyme Activity (relative to DMSO controls), Data 1 ([4]; DAPK1, 1 uM, replicate Data 1): 111.72%; % Enzyme Activity (relative to DMSO controls), Data 2 ([4]; DAPK1, 1 uM, replicate Data 2): 104.16%; % Enzyme Activity (relative to DMSO controls), Average ([4]; DAPK1, 10 uM, Average): 91.65%; % Enzyme Activity (relative to DMSO controls), Data 1 ([4]; DAPK1, 10 uM, replicate Data 1): 92.47%; % Enzyme Activity (relative to DMSO controls), Data 2 ([4]; DAPK1, 10 uM, replicate Data 2): 90.82%
5 | COc1ccc2c3c1O[C@H]1C[C@@H](O)C=C[C@@]31CCN(C)C2 [Galantamine] | 104.29 | 94.53 | 103.82 | 93.22 | 104.73 | 103.85 | 95.37 | 93.68 | % Enzyme Activity (relative to DMSO controls), Data 1 ([3]; VEGFR2, 1 uM): 106.14%; % Enzyme Activity (relative to DMSO controls), Data 2 ([3]; VEGFR2, 1 uM, replicate Data 2): 101.5%; % Enzyme Activity (relative to DMSO controls), Data 1 ([3]; VEGFR2, 10 uM): 95.78%; % Enzyme Activity (relative to DMSO controls), Data 2 [3, 5]: 90.65%
6 | O=C1c2cccc3c2[C@H](CCC3)CN1[C@@H]1CN2CCC1CC2 [Palonosetron] | 97.11 | 88.19 | – | – | 97.96 | 96.26 | 86.49 | 89.88 | –
7 | C[C@H]1O[C@@H](O[C@H]2[C@@H](O)C[C@H](O[C@H]3[C@@H](O)C[C@H](O[C@H]4CC[C@@]5(C)[C@H](CC[C@@H]6[C@@H]5C[C@@H](O)[C@]5(C)[C@@H](C7=CC(=O)OC7)CC[C@]65O)C4)O[C@@H]3C)O[C@@H]2C)C[C@H](O)[C@@H]1O [Digoxin] | 101.58 | 92.84 | – | – | 99.88 | 103.27 | 91.71 | 93.96 | % Enzyme Activity (relative to DMSO controls), Average ([1]; CK1d, 1 uM): 103.51%; % Enzyme Activity (relative to DMSO controls), Data 1 ([1]; CK1d, 1 uM): 105.62%; % Enzyme Activity (relative to DMSO controls), Data 2 ([1]; CK1d, 1 uM, replicate Data 2): 101.39%; % Enzyme Activity (relative to DMSO controls), Average ([1]; CK1d, 10 uM): 100.70%; % Enzyme Activity (relative to DMSO controls), Data 1 ([1]; CK1d, 10 uM): 102.31%; % Enzyme Activity (relative to DMSO controls), Data 2 ([1]; CK1d, 10 uM, replicate Data 2): 99.09%

More lines, main results first:

Row | % Enzyme Activity (relative to DMSO controls), Average ([2]; EPHB4, 1 uM, Average) [%] | % Enzyme Activity (relative to DMSO controls), Average ([2]; EPHB4, 10 uM, Average) [%] | % Enzyme Activity (relative to DMSO controls), Average ([3]; VEGFR2, 1 uM) [%] | % Enzyme Activity (relative to DMSO controls), Average ([3]; VEGFR2, 10 uM) [%] | % Enzyme Activity (relative to DMSO controls), Data 1 ([2]; EPHB4, 1 uM, replicate Data 1) [%] | % Enzyme Activity (relative to DMSO controls), Data 2 ([2]; EPHB4, 1 uM, replicate Data 2) [%] | % Enzyme Activity (relative to DMSO controls), Data 1 ([2]; EPHB4, 10 uM, replicate Data 1) [%] | % Enzyme Activity (relative to DMSO controls), Data 2 ([2]; EPHB4, 10 uM, replicate Data 2) [%] | Molecule | also measured
8 | 110.35 | 94.48 | 108.60 | 108.08 | – | – | – | – | Fc1ccc([C@@H]2CCNC[C@H]2COc2ccc3c(c2)OCO3)cc1 [Paroxetine] | % Enzyme Activity (relative to DMSO controls), Average ([1]; CK1d, 10 uM): 105.10%
9 | 101.77 | 95.95 | – | – | 104.24 | 99.3 | 97.18 | 94.72 | Penicillin | % Enzyme Activity (relative to DMSO controls), Average ([1]; CK1d, 1 uM): 98.45%; % Enzyme Activity (relative to DMSO controls), Data 1 ([1]; CK1d, 1 uM): 97.41%; % Enzyme Activity (relative to DMSO controls), Data 2 ([1]; CK1d, 1 uM, replicate Data 2): 99.49%; % Enzyme Activity (relative to DMSO controls), Average ([1]; CK1d, 10 uM): 115.43%; % Enzyme Activity (relative to DMSO controls), Data 1 ([1]; CK1d, 10 uM): 111.85%; % Enzyme Activity (relative to DMSO controls), Data 2 ([1]; CK1d, 10 uM, replicate Data 2): 119.01%
10 | 101.51 | 94.56 | – | – | 102.27 | 100.74 | 96.08 | 93.04 | C/C(O)=C(\C#N)C(=O)Nc1ccc(C(F)(F)F)cc1 [Teriflunomide] | –
11 | 101.67 | 94.49 | 106.05 | 96.15 | 102.42 | 100.92 | 94.37 | 94.61 | CCCCC1C(=O)N(c2ccccc2)N(c2ccccc2)C1=O [Phenylbutazone] | % Enzyme Activity (relative to DMSO controls), Data 1 ([3]; VEGFR2, 1 uM): 102.9%; % Enzyme Activity (relative to DMSO controls), Data 2 ([3]; VEGFR2, 1 uM, replicate Data 2): 109.19%; % Enzyme Activity (relative to DMSO controls), Data 1 ([3]; VEGFR2, 10 uM): 86.33%; % Enzyme Activity (relative to DMSO controls), Data 2 [3, 5]: 105.96%
